1 compound from patent US8158656B2, “2-indolinone derivatives as multi-target protein kinase inhibitors and histone deacetylase inhibitors” (Shenzhen Chipscreen Biosciences Ltd., priority 2008, dated 2012) can be followed below.

As usually defined, the GI50 is the concentration at which growth is held to half of that of the control. Read a high GI50 as less potent growth inhibition. In general, IC50 refers to the concentration that inhibits the measured activity by half. Higher therefore signals weaker potency.

Test [1] concerns MDA-MB-231. As to the kind of experiment: Tumor cell proliferation (MTS), MDA-MB-231. The class given is cell-based. As to conditions: Homo sapiens, MDA-MB-231, 72 hours. The method, then: (§1) Measurement of in vivo cell proliferation:
(§2) Tumor cells were trypsinized and plated into 96-well plates at 3,000 per well and incubated in complete medium with 10% FBS for 24 hours. Compounds were added over a final concentration range of 100 μmol/L to 100 nmol/L in 0.1% DMSO and incubated for 72 hours in complete medium. The effects on proliferation were determined by addition of MTS reagent (Promega) according to the instruction, incubation for 2 hours at 37° C. in CO2 incubator, and record the absorbance at 490 nm using an ELISA plate reader.

For test [2], the target named is VEGFR2 (Homo sapiens, UniProt P35968). Description: VEGF receptor kinase ELISA bioassay. The class given is biochemical. To be noted: ELISA kinase assay, 200 μM ATP. Background: ELISA stands for enzyme-linked immunosorbent assay.
Chain of VEGFR2 (P35968 807-1356): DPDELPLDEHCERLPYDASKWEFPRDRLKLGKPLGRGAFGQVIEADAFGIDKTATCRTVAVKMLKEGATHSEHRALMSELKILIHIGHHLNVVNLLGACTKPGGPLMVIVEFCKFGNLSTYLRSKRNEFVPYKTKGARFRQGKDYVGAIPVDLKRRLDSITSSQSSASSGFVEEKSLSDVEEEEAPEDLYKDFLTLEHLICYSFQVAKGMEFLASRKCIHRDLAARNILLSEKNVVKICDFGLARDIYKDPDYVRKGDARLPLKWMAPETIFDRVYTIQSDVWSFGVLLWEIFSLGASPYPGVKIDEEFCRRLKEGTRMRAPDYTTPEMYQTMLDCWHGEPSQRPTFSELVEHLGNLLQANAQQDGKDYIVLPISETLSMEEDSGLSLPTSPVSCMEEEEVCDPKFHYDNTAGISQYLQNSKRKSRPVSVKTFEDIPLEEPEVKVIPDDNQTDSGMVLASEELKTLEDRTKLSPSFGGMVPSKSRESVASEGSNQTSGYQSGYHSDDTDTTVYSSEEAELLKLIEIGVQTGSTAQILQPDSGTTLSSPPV
In test [3] the target is T1, Flt3 (Homo sapiens, UniProt P36888).
T1 construct: purchased Cell Signaling
T1 sequence (P36888 27-993): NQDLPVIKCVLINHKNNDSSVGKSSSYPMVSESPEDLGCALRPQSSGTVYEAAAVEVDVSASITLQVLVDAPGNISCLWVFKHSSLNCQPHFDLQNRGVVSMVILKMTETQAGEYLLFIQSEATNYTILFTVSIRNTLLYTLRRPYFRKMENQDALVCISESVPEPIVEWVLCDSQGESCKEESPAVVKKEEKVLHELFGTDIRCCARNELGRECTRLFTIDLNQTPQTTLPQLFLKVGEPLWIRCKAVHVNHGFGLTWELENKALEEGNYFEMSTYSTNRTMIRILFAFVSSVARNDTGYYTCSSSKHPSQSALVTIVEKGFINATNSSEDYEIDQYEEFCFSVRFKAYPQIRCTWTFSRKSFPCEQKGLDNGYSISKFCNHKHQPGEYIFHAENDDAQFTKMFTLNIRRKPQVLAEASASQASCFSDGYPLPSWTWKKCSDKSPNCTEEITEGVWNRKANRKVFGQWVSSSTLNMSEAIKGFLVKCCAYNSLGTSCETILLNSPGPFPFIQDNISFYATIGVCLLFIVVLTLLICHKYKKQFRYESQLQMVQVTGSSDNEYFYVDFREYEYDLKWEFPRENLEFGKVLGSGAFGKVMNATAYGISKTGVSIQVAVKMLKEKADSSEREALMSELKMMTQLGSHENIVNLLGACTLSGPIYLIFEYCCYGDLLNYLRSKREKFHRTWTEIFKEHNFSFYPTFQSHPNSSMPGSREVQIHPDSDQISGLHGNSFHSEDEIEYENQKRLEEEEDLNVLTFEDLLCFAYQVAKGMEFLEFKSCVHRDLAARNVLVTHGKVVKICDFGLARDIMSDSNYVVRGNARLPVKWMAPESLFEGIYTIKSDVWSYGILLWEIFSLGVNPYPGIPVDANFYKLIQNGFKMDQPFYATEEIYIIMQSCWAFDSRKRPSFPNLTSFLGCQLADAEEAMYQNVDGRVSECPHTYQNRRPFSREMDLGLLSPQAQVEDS
As to the kind of experiment: Flt3 kinase ELISA bioassay. The class given is biochemical. To be noted: ELISA kinase assay, 200 μM ATP. The method, then: This assay is used to measure in vitro kinase activity of Flt3 in an ELISA assay.
• 1. Streptavidin coated, 96-well, white plate • 2. Phospho-Tyrosine Monoclonal Antibody (P-Tyr-100) (Cell Signaling) • 3. HRP-labeled anti-mouse IgG (Upstate) • 4. HTScan™ Tyrosine Kinase Buffer (4×) • 5. DTT (1000×. 1.25 M) • 6. ATP (10 mM) • 7. KDR (Tyr996) Biotinylated Peptide Substrate (Cell Signaling) • 8. Flt3 Kinase (recombinant, human) (Cell Signaling) • 9. Wash Buffer: 1× PBS, 0.05% Tween-20 (PBS/T) • 10. Bovine Serum Albumin (BSA) • 11. Stop Buffer: 50 mM EDTA pH 8 • 12. Enhanced chemiluminescence (ECL) (Amersham) Procedure for performing the assay in 96-well plate: • 1. Add 10 μl 10 mM ATP to 1.25 ml 6 μM substrate peptide. Dilute the mixture with dH20 to 2.5 ml to make 2× ATP/substrate cocktail ([ATP]=[…], [substrate]=3 μm). • 2. Immediately transfer enzyme from −80° C. to ice. Allow enzyme to thaw on ice. • 3. Microcentrifuge briefly at 4° C. to bring liquid to the bottom of the vial. Return immediately to ice. • 4. Add 10 μl of DTT (1.25 M) to 2.5 ml of 4× HTScan™ Tyrosine Kinase Buffer (240 mM HEPES pH 7.5, 20 mM MgCl2, 20 mM MnCl2, 12 μM Na3VO4) to make DTT/Kinase buffer. • 5. Transfer 1.25 ml of DTT/Kinase buffer to enzyme tube to make 4× reaction cocktail ([enzyme]=4 ng/μL in 4× reaction cocktail). • 6. Incubate 12.5 μl of the 4× reaction cocktail with 12.5 μl/well of prediluted compound of interest (usually around 10 μM) for 5 minutes at room temperature. • 7. Add 25 μl of 2× ATP/substrate cocktail to 25 μl/well preincubated reaction cocktail/compound. Final Assay Conditions for a 50 μl Reaction: • 60 mM HEPES pH 7.5 • 5 mM MgCl2 • 5 mM MnCl2 • 3 μM Na3VO4 • 1.25 mM DTT • […] • 1.5 μM peptide • 10 units Flt3 Kinase • 8. Incubate reaction plate at room temperature for 30 minutes. • 9. Add 50 μl/well Stop Buffer (50 mM EDTA, pH 8) to stop the reaction. • 10. Transfer 50 μl of each reaction and 50 μl dH2O/well to a 96-well streptavidincoated plate and incubate at room temperature for 60 minutes. • 11. Wash three times with 200 μl/well PBS/T • 12. Dilute primary antibody, Phospho-Tyrosine Monoclonal Antibody (P-Tyr-100), 1:1000 in PBS/T with 1% BSA. Add 100 μl/well of primary antibody. • 13. Incubate at room temperature for 60 minutes. • 14. Wash three times with 200 μl/well PBS/T • 15. Dilute HRP labeled anti-mouse IgG 1:500 in PBS/T with 1% BSA. Add 100 μl/well diluted antibody. • 16. Incubate at room temperature for 30 minutes. • 17. Wash five times with 200 μl/well PBS/T. • 18. Add 100 μl/well ECL Solution. • 19. Detect luminescence with appropriate Plate Reader.

Test [4] deals with HeLa. As to the kind of experiment: Tumor cell proliferation (MTS), HeLa. The class given is cell-based. As to conditions: Homo sapiens, 72 hours. How it is done: as §1, §2

Turning to `Cc1[nH]c(/C=N/N=C2\C(=O)Nc3ccc(F)cc32)c(C)c1C(=O)NCCCCNc1ccc(C(=O)Nc2ccc(F)cc2N)cn1` [Example 20, N-(2-amino-4-fluorophenyl)-6-(4-(2-(((5-fluoro-2-oxoindolin-3-ylidene)-hydrazono)methyl)-3,5-dimethyl-1H-pyrrole-4-carboxamido)butylamino)nicotinamide], the GI50 in test [1] and in test [4] was above 60 µM throughout. For the same compound, the IC50 in test [2] and in test [3] was above 1000 nM throughout.
